# Read-outs that look alike come from different tables or passages of the source.
# Key:
# [1] = test system: acutely dissociated and purified rat OPCs; assay: Acute OL differentiation assay (MBP expression/cell, immunofluorescent image quantification); type: cell-based; conditions: sheet "All OLga data"; for activation at 0.4 µM / activation at 2 µM / activation at 10 µM / activation at 0.08 µM: Rattus norvegicus
# Procedure, shortened: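 Oligodendrocyte precursor cells were enriched from P6-P7 Sprague–Dawley rat brains by immunopanning (RAN-2 and GalC depletion, O4 selection), plated at 5000 cells/well in serum-free, mitogen-free differentiation media on PDL/laminin 96-well view plates, centrifuged at 200×g, and pre-incubated 1–2 h before test compounds were added in quadruplicate. On DIV4, cells were fixed, stained for MBP and DAPI, imaged automatically, and MBP expression per cell was quantified.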
# [2] = test system: expanded OPCs; assay: cells; conditions: for viability at 0.1 µM / viability at 1 µM / viability at 10 µM: Rattus norvegicus, 72 h
# Procedure, shortened: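 Expanded OPCs seeded at 10,000 cells/well in differentiation media, then exposed to NCC library compounds at 10, 1 and 0.1 µM (quadruplicate, 0.1% DMSO) for three days. Viability read as alamarBlue fluorescence (560/590 nm) after 4 h at 37 °C; tunicamycin 5 ng/ml served as toxicity control.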
# [3] = 0.4 uM test compound, relative to quetiapine, read-out: OL differentiation, 0.4 uM (% Quet)
# [4] = 2 uM test compound, relative to quetiapine, read-out: OL differentiation, 2 uM (% Quet)
# [5] = read-out: 0.1 µM (% DMSO), alamarBlue viability, NCC library compound at 0.1 µM, sheet "All Tox data"
# [6] = read-out: 1 µM (% DMSO), alamarBlue viability, NCC library compound at 1 µM, sheet "All Tox data"
# [7] = read-out: 10 µM (% DMSO), alamarBlue viability, NCC library compound at 10 µM, sheet "All Tox data"
# [8] = 10 uM test compound, relative to quetiapine, read-out: OL differentiation, 10 uM (% Quet)
# [9] = read-out: 0.1 µM (% DMSO), alamarBlue viability of expanded OPCs, compound at 0.1 µM, sheet All Tox data
# [10] = read-out: 1 µM (% DMSO), alamarBlue viability of expanded OPCs, compound at 1 µM, sheet All Tox data
# [11] = read-out: 10 µM (% DMSO), alamarBlue viability of expanded OPCs, compound at 10 µM, sheet All Tox data
# [12] = alamarBlue viability of expanded OPCs, compound at 0.1 µM, relative to DMSO control
# [13] = alamarBlue viability of expanded OPCs, compound at 1 µM, relative to DMSO control
# [14] = alamarBlue viability of expanded OPCs, compound at 10 µM, relative to DMSO control
smiles,measurement,setting,value
COC(=O)C1=C(C)NC(C)=C(C(=O)OC(C)C)C1c1cccc2nonc12 (stereo not shown) [Isradipine],activation at 0.4 µM,[1]; [3],-7.2%
same,activation at 2 µM,[1]; [4],-6.1%
same,viability at 0.1 µM,[2]; [5],89.4%
same,viability at 1 µM,[2]; [6],80.5%
same,viability at 10 µM,[2]; [7],45.6%
O=C1CN=C(c2ccccc2)c2cc([N+](=O)[O-])ccc2N1 [Nitrazepam],activation at 2 µM,[1]; [4],7.3%
same,activation at 10 µM,[1]; [8],-25.3%
same,viability at 0.1 µM,[2]; [9],84.2%
same,viability at 1 µM,[2]; [10],88.9%
same,viability at 10 µM,[2]; [11],95%
c1ccc2c3c([nH]c2c1)CNCC3 [Tryptoline],activation at 2 µM,"[1]; test compound at 2 uM, NCC library screen, relative to quetiapine, read-out: 2 uM (% Quet)",-12.9%
same,activation at 10 µM,"[1]; test compound at 10 uM, NCC library screen, relative to quetiapine, read-out: 10 uM (% Quet)",-20.7%
same,viability at 0.1 µM,[2]; [5],103%
same,viability at 1 µM,[2]; [6],92.4%
same,viability at 10 µM,[2]; [7],62.6%
CN1CCN(CC/C=C2/c3ccccc3Sc3ccc(S(=O)(=O)N(C)C)cc32)CC1 [Thiothixene],activation at 0.08 µM,"[1]; test compound at 0.08 uM, MBP expression relative to quetiapine, NCC library screen, read-out: 0.08 uM (% Quet)",45.9%
same,activation at 0.4 µM,"[1]; test compound at 0.4 uM, MBP expression relative to quetiapine, NCC library screen, read-out: 0.4 uM (% Quet)",24%
same,0.1 µM (% DMSO),[2]; [12],81.2 % DMSO
same,1 µM (% DMSO),[2]; [13],49.9 % DMSO
same,10 µM (% DMSO),[2]; [14],16.9 % DMSO
CC(C)C[C@H](NC(=O)[C@@H](COC(C)(C)C)NC(=O)[C@H](Cc1ccc(O)cc1)NC(=O)[C@H](CO)NC(=O)[C@H](Cc1c[nH]c2ccccc12)NC(=O)[C@H](Cc1cnc[nH]1)NC(=O)[C@@H]1CCC(=O)N1)C(=O)N[C@@H](CCCNC(=N)N)C(=O)N1CCC[C@H]1C(=O)NNC(N)=O [Goserelin],2 uM (% Quet),"[1]; test compound at 2 uM, NCC library screen, relative to quetiapine",-6.3 % Quet
same,10 uM (% Quet),"[1]; test compound at 10 uM, NCC library screen, relative to quetiapine",5.4 % Quet
same,0.1 µM (% DMSO),"[2]; alamarBlue viability, NCC library compound at 0.1 µM, sheet ""All Tox data""",95.7 % DMSO
same,1 µM (% DMSO),"[2]; alamarBlue viability, NCC library compound at 1 µM, sheet ""All Tox data""",94.5 % DMSO
same,10 µM (% DMSO),"[2]; alamarBlue viability, NCC library compound at 10 µM, sheet ""All Tox data""",97.2 % DMSO
Cc1cccc(C)c1NC(=O)C(C)N (stereo not shown) [Tocainide],activation at 2 µM,[1]; [4],1.2%
same,activation at 10 µM,[1]; [8],-23.2%
same,viability at 0.1 µM,[2]; [9],94.9%
same,viability at 1 µM,[2]; [10],96.2%
same,viability at 10 µM,[2]; [11],98%
CNC1CC(c2ccc(Cl)c(Cl)c2)c2ccccc21 (stereo not shown) [Indatraline],activation at 0.08 µM,"[1]; 0.08 uM test compound, relative to quetiapine, read-out: OL differentiation, 0.08 uM (% Quet)",15.3%
same,activation at 0.4 µM,[1]; [3],24.5%
same,viability at 0.1 µM,[2]; [9],75.5%
same,viability at 1 µM,[2]; [10],41.1%
same,viability at 10 µM,[2]; [11],11.7%
Nc1nc2c(ncn2COCCO)c(=O)[nH]1 [Acyclovir],activation at 2 µM,"[1]; test compound at 2 uM, MBP expression relative to quetiapine, NCC library screen, read-out: 2 uM (% Quet)",21.2%
same,activation at 10 µM,"[1]; test compound at 10 uM, MBP expression relative to quetiapine, NCC library screen, read-out: 10 uM (% Quet)",4.3%
same,0.1 µM (% DMSO),[2]; [12],98.2 % DMSO
same,1 µM (% DMSO),[2]; [13],90.8 % DMSO
same,10 µM (% DMSO),[2]; [14],91.7 % DMSO
Cn1c(NCCN(CCO)CCCc2ccc([N+](=O)[O-])cc2)cc(=O)n(C)c1=O [Nifekalant],activation at 2 µM,[1]; [4],-9.4%
same,activation at 10 µM,[1]; [8],6%
same,viability at 0.1 µM,[2]; [9],94.4%
same,viability at 1 µM,[2]; [10],97.6%
same,viability at 10 µM,[2]; [11],109%
Nc1[nH]c(=O)ncc1F [Flucytosine],activation at 2 µM,[1]; [4],-1.1%
same,activation at 10 µM,[1]; [8],-1%
same,viability at 0.1 µM,[2]; [9],98.2%
same,viability at 1 µM,[2]; [10],90.7%
same,viability at 10 µM,[2]; [11],99.4%
CO[C@H]1/C=C/O[C@@]2(C)Oc3c(C)c(O)c4c(O)c(c5c(nc6cc(C)ccn65)c4c3C2=O)NC(=O)/C(C)=C\C=C\[C@H](C)[C@H](O)[C@@H](C)[C@@H](O)[C@@H](C)[C@H](OC(C)=O)[C@@H]1C [Rifaximin],activation at 0.4 µM,[1]; [3],-15.2%
same,activation at 2 µM,[1]; [4],-77.9%
same,viability at 0.1 µM,[2]; [5],101%
same,viability at 1 µM,[2]; [6],69.4%
same,viability at 10 µM,[2]; [7],21%
C[C@]12CC[C@H]3[C@@H](CCC4=CC(=O)CC[C@@H]43)[C@@H]1CC[C@@H]2O [Nandrolone],activation at 2 µM,[1]; [4],-5.9%
same,activation at 10 µM,[1]; [8],-26.5%
same,viability at 0.1 µM,[2]; [9],94.4%
same,viability at 1 µM,[2]; [10],98.5%
same,viability at 10 µM,[2]; [11],96.2%
CCOC(=O)c1ncn2c1CN(C)C(=O)c1cc(F)ccc1-2 [Flumazenil],activation at 2 µM,[1]; [4],-7.2%
same,activation at 10 µM,[1]; [8],-31.7%
same,viability at 0.1 µM,[2]; [9],84.8%
same,viability at 1 µM,[2]; [10],88.2%
same,viability at 10 µM,[2]; [11],95.5%
COCc1c(C(C)C)nc(C(C)C)c(/C=C/[C@@H](O)C[C@@H](O)CC(=O)O)c1-c1ccc(F)cc1 [Cerivastatin],activation at 0.4 µM,[1]; [3],-38.8%
same,activation at 2 µM,[1]; [4],-191%
same,viability at 0.1 µM,[2]; [9],97.3%
same,viability at 1 µM,[2]; [10],52.3%
same,viability at 10 µM,[2]; [11],11.5%

# Source: PMC5011342, “A high throughput drug screening assay to identify compounds that promote oligodendrocyte differentiation using acutely dissociated and purified oligodendrocyte precursor cells” (BMC Research Notes, 2016)
